Test [1] is described as follows: viability of uninfected HEp-2 cells – cell-based, HTS, cytotoxicity control for RSV inhibitor project, dose response (AID 2410). The class given is functional. The settings on record: human respiratory syncytial virus.
A short description of test [2]: cells.
A short description of test [3]: Counterscreen for IDE inhibitors: Luminescence-based cell-based high throughput dose response assay to identify compounds that are cytotoxic to HEK cells. [Related pubchem assays: 434962 (Primary screen (IDE inhibitors in singlicate)), 449730 (Counterscreen (Cytotoxicity in triplicate)), 435028 (Confirmation (IDE inhibitors in triplicate)) …. The class given is functional. The settings on record: HEK293. (In general: A counterscreen serves to expose hits that act by an unwanted route or on another target.)

For another test, the target named is Insulin-degrading enzyme (Homo sapiens, UniProt P14735). Put plainly: Dose Response: Fluorescence polarization-based cell-based high throughput dose response assay for inhibitors of insulin-degrading enzyme (IDE). [Related pubchem assays: 434962 (Primary screen (IDE inhibitors in singlicate)), 449730 (Counterscreen (Cytotoxicity in triplicate)), 435028 (Confirmation (IDE inhibitors in triplicate)), 434984 (Summary …. It counts as functional. A general note: Polarisation of emitted light reports the rotation of a fluorescent probe.
Sequence of Insulin-degrading enzyme (P14735 whole entry): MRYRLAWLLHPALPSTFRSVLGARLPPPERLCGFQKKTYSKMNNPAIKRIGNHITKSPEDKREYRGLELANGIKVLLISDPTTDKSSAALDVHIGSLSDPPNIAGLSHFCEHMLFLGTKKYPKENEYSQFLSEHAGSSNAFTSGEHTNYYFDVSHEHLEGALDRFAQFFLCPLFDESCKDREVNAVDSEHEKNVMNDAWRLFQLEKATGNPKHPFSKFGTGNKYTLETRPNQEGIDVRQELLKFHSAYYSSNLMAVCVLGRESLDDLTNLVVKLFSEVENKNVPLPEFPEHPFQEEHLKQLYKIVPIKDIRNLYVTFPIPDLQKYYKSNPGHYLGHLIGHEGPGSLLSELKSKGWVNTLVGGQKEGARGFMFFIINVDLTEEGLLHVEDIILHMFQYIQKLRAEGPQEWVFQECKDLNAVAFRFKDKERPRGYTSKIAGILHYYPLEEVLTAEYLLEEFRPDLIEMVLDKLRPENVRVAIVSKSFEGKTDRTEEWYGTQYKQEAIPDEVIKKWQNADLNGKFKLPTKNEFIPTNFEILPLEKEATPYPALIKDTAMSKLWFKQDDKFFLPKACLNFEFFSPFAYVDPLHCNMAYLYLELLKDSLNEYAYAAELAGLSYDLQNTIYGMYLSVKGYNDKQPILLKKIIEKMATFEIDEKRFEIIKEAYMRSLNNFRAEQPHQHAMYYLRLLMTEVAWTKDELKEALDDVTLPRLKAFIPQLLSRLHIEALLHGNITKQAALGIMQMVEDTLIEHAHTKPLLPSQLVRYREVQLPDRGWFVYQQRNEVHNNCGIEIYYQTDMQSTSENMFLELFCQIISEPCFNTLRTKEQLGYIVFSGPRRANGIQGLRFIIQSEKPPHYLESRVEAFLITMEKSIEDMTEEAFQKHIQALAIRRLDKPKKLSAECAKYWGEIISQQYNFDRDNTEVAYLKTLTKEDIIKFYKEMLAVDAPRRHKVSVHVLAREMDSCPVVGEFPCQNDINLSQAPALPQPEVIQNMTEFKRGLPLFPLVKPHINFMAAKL

The subject of another test is Staphylococcus aureus. Description: Inhibitors of Bacterial Quorum Sensing Structure Activity Relationship (SAR) Analysis: Dose Response Assay. [Related pubchem assays: 700, 527 ]. The class given is functional, organism-based.
Test [4] has as its target T1, RNA-binding protein pos-1 (Caenorhabditis elegans, UniProt G5EF15).
T1 sequence (G5EF15 whole entry): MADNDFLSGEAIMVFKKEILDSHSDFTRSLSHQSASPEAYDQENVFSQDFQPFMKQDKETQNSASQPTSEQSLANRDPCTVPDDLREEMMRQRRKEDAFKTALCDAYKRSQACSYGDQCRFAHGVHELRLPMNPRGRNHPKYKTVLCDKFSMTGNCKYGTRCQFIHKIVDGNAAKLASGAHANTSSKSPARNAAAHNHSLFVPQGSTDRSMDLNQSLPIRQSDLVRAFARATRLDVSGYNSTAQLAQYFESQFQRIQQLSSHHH
Description: disruptors of C. elegans POS-1 RNA interaction – biochemical, fluorescence polarization, dose response (AID 1964).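 Further: purified POS-1 fused to maltose binding protein made in E. coli; potency of compounds blocking POS-1 binding to fluorescent RNA.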

For test [5], the target named is T2, Zinc finger protein mex-5 (Caenorhabditis elegans, UniProt Q9XUB2).
T2 sequence (Q9XUB2 whole entry): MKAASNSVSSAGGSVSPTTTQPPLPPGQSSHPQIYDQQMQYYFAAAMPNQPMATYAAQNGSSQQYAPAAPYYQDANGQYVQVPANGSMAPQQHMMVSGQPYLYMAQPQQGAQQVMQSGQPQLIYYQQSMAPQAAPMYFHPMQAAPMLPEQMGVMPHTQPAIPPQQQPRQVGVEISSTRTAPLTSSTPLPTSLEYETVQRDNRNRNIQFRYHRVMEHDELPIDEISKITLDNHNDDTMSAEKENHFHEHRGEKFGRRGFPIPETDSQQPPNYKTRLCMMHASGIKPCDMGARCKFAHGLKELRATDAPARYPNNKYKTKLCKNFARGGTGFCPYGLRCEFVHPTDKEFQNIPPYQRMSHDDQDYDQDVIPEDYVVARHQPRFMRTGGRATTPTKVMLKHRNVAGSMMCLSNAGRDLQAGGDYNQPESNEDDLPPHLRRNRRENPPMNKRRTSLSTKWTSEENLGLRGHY
Description: potency of MEX-5 RNA-binding blockers – biochemical, C. elegans, fluorescence polarization, dose response (AID 1960).

The target in test [6] is T3, Aryl hydrocarbon receptor (Homo sapiens, UniProt P35869).
T3 sequence (P35869 whole entry): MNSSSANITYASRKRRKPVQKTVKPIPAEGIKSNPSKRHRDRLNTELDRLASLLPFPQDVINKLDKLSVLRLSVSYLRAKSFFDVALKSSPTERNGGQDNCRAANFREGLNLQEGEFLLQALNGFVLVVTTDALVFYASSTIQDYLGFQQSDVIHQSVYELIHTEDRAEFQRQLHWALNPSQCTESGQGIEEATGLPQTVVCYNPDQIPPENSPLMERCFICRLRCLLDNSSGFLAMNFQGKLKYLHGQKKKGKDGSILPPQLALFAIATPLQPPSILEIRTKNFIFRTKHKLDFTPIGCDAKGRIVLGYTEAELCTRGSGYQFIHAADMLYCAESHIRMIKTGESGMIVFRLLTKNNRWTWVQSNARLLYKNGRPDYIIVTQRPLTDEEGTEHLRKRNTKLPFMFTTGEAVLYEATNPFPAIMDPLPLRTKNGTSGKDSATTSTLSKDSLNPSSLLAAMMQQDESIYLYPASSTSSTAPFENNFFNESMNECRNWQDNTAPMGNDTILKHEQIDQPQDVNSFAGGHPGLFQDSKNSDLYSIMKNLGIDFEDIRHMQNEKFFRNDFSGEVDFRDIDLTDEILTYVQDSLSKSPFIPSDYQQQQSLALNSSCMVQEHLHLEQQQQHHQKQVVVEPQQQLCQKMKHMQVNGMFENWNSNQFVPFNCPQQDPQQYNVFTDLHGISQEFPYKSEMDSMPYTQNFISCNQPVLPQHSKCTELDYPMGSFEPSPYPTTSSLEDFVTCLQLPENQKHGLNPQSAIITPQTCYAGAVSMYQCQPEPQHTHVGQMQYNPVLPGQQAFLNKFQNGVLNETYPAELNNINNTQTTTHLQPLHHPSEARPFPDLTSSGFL
Description: Luminescence-based cell-based high throughput dose response assay for activators of the Aryl Hydrocarbon Receptor (AHR). [Related pubchem assays: 2796 (Primary screen (AHR activators in singlicate)), 2845 (Confirmation screen (AHR activators in triplicate)), 434939 (Counterscreen (PXR activators in triplicate)), 2804 (Summary (AHR activators))]. It counts as ADME.

Test [7] can be described thus: luciferase reporter signal reduction – luminescence, H4-C neuroglioblastoma cells, dose response (AID 2458).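 Further: H4 neuroglioblastoma cells stably carrying a luciferase reporter gene fusion.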 It counts as functional, cell-based. On the technique in general: A reporter such as luciferase makes a cellular process visible.
A short description of test [8]: cells. It counts as functional, cell-based.
Test [9] can be described thus: Luminescence Cell-Based Dose Response HTS to Identify Inhibitors of 5'UTR Stem-Loop Driven Prion Protein mRNA Translation in H4 Neuroglioblastoma Cells. [Related pubchem assays: 1827 (Project Summary), 1813 (Primary HTS)]. It counts as functional.
Test [10] is described as follows: alpha-synuclein stem-loop luciferase translation blockers – H4 neuroglioma cells, luminescence, confirmation (AID 1988). The class given is functional, cell-based.
Test [11] is described as follows: alpha-synuclein stem-loop translation blockers – luminescence, H4 neuroglioblastoma cells, dose confirmation, confirmation (AID 2454).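 Further: H4 neuroglioblastoma cells carrying an alpha-synuclein 5'UTR luciferase reporter; potency for inhibition of the luciferase signal.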 The class given is functional, cell-based.
Another test deals with INS1. Description: INS-1E survival protection against cytokine death – cell-based, luminescence, retest, dose response (AID 449756).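 Further: cell death triggered by IL-1 beta plus TNF-alpha plus IFN-gamma mixture; protective hits raise ATP signal compared with cytokine alone wells.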 It counts as functional. To be noted: Rattus norvegicus.
Another test deals with Albumin (Bos taurus, UniProt P02769). Description: Counterscreen for inhibitors of T-cell receptor (TCR)-CD3 interaction: Fluorescence-based biochemical high throughput dose response assay to identify inhibitors of T-cell receptor (TCR)-CD3 interaction using a TAMRA-labeled BSA probe. It counts as functional.
Sequence of Albumin (P02769 whole entry): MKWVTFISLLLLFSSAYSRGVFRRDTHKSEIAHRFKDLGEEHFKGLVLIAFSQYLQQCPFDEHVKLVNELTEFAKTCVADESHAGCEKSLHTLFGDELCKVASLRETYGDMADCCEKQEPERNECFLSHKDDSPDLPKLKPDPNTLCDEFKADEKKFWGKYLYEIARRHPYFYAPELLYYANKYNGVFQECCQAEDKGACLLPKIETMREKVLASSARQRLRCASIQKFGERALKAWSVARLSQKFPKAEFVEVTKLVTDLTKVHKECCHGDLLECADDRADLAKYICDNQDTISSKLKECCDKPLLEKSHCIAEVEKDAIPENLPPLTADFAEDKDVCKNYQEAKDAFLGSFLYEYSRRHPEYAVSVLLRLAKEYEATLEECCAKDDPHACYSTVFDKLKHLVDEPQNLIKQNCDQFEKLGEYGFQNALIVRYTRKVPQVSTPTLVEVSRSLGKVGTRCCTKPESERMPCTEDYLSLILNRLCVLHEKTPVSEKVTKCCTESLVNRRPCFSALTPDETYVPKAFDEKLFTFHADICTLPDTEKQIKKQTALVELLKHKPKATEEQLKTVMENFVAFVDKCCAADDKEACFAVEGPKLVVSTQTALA
In test [12] the target is Luciferin 4-monooxygenase (Photinus pyralis, UniProt P08659). Description: Counter Screen for Luciferase-based Assay Positives. [Related pubchem assays: 620, 618, 411 ].
Sequence of Luciferin 4-monooxygenase (P08659 whole entry): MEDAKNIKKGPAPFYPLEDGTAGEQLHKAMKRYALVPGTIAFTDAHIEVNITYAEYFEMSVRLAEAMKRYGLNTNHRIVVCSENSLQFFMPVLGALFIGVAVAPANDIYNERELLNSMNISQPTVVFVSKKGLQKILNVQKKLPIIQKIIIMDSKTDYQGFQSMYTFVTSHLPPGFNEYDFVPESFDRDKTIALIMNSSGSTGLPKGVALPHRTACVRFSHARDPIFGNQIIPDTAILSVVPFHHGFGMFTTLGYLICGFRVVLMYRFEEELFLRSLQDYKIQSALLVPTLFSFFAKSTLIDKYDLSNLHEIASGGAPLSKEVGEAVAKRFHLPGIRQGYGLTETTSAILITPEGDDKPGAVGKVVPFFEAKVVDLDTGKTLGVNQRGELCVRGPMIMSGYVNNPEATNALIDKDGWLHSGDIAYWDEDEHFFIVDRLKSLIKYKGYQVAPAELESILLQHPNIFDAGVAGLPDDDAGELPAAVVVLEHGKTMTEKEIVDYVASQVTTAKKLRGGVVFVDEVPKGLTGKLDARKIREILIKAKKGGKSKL
The next test has as its system HT-1080. Description: HT1080 cell viability loss – fluorescence readout (AID 620). It counts as functional, cell-based. The settings on record: Homo sapiens.
For the next test, the system named is HEK293. Put plainly: EBV LMP1 TES2 canonical NF-kB signalling blockers – cell-based, HEK293, luciferase, cherry-pick, dose response (AID 588343). The settings on record: Homo sapiens. It counts as functional.
The target in test [13] is Induced myeloid leukemia cell differentiation protein Mcl-1 (Homo sapiens, UniProt Q07820). It counts as functional.
Sequence of Induced myeloid leukemia cell differentiation protein Mcl-1 (Q07820 whole entry): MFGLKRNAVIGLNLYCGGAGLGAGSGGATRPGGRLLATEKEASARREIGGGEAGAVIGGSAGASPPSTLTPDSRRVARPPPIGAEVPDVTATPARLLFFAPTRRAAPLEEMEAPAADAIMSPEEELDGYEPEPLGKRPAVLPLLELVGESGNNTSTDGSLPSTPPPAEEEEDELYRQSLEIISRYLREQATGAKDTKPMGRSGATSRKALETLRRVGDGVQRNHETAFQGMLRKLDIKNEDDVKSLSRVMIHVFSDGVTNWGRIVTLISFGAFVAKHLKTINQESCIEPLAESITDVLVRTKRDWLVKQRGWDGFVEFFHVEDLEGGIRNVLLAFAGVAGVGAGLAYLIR
The nature of test [14]: luciferase reporter signal suppression in cells – H4 neuroglioma cells, luminescence, dose response (AID 1990). It counts as functional, cell-based.

Active and inactive are the calls of the source.

Usually CC50 stands for the concentration giving 50% cytotoxicity. For orientation: IC50 means the midpoint of a concentration-inhibition curve. In the case of `COCc1cc(C)nc(SCC(=O)Nc2ccccc2N2CCOCC2)c1C#N`, in test [1], the CC50 was > 50 µM (active). Further, in “cells [2]”, the concentration for half-maximal inhibition (IC50) was 9.24 µM (active).

As for `Cc1cccc(Nc2nc(N)c(C#N)c(CC#N)c2C#N)c1`, the IC50 in test [3] is reported as 29.6 µM (not active); at Insulin-degrading enzyme it was > 56 µM (not active).

Take `COc1ccc(NC(=O)C(c2cc3c(cc2[N+](=O)[O-])OCO3)N2CC(C)CC(C)C2)cc1` (configuration not stated): the 50% inhibitory concentration (IC50) in the test on Staphylococcus aureus is 1.31 µM (active).

The term EC50 denotes the midpoint of the concentration-response curve. With `NS(=O)(=O)c1ccc(-c2ccc(/C=C3\SC(=O)NC3=O)o2)cc1`, the values for the 50% effective concentration (EC50) in [4], in test [5] and in test [6] were > 300 µM (not active), 33.4 µM (active) and 0.237 µM (active), respectively.

On to `CC(=O)N(C(C)=O)c1nc(-c2ccccc2)cn1/N=C/c1ccccc1`, for which the half-inhibitory concentration (IC50) in test [3] was 20 µM (not active); at Insulin-degrading enzyme, > 55.9 µM (not active).

By AC50 is commonly meant the concentration at which the activity in the assay is half-maximal. Regarding `C/C(=N\NC(=O)c1c(C)nc2ccccn12)c1ccc(O)cc1O`, the 50% effective concentration (EC50) in test [7] was 0.739 µM (active); in the test “cells [8]”, 0.901 µM (active); in test [9], < 0.1 µM (active); in [10], < 0.1 µM (active); in test [11], > 12 µM (inconclusive). In the test on INS1, the concentration at half-maximal activity (AC50) was 0.586 µM (active). Moreover, the IC50 on Albumin is > 94.1 µM (inactive).

For the compound `C/C(=N/NC(=O)c1cc(C2CC2)[nH]n1)c1cccs1`, the results for the half-maximal effective concentration (EC50) (in test [12]; in the test with HT-1080) were > 100 µM (not active) and > 50 µM (not active), respectively. In addition, the AC50 in the test with HEK293 is 1.63 µM (active).

Consider `CCO/C(O)=C1\C(C)=NC2=C(C(=O)CC(C)(C)C2)C1c1ccc2c(c1)CCCN2C` (configuration not stated), for which the concentration for half-maximal inhibition (IC50) in test [13] is given as 1.65 µM (not active).

`CC(=O)O[C@@H]1/C=C/[C@](C)(O)C[C@@H](C)C/C=C/[C@H]2[C@@H]3O[C@]3(C)[C@@H](C)[C@H]3[C@H](Cc4ccccc4)NC(=O)[C@@]312` [EPOXYCYTOCHALASIN H]: the EC50 in [14] is < 0.1 µM (active); in test [7] it was 0.431 µM (active); in “cells [8]” it was 0.608 µM (active); in test [9] it was < 0.1 µM (active); in [10], < 0.1 µM (active); in [11], 0.403 µM (active).
